Measurements: patent publication US6420558B1, “Aminopiperidine derivates as integrin αvβ3 antagonists” (Meiji Seika Kaisha, Ltd., priority 1998, dated 2002)

What was measured:
[1] = target: GP IIb/IIIa (Homo sapiens, UniProt P05106+P08514); assay: GP IIb/IIIa antagonistic activity (method of Pharmacological Test 2 in WO 94/21599); format: binding
Method: GP IIb/IIIa Antagonistic Activity and Human Platelet Aggregation Inhibitory Activity
GP IIb/IIIa antagonistic activity was measured for the compounds according to the present invention. The measurement of the GP IIb/IIIa antagonistic activity was carried out according to the method described in Pharmacological Test 2 in WO 94/21599.

[2] = system: human vascular smooth muscle cells adhering to immobilized human vitronectin; assay: Inhibitory activity against adhesion of human vascular smooth muscle cells to vitronectin; format: cell-based; settings: 1.5 h; human vitronectin-coated plate, 90 min
Method: Inhibitory Activity Against Adhesion of Human Vascular Smooth Muscle Cells to Vitronectin
The adhesion of human vascular smooth muscle cells =+to immobilized human vitronectin was measured in accordance with the method of Liaw et al. (Liaw L, Almeida M, Hart C E, Schwartz S M, and Giachelli C M, Circulation Research, 74 (2), 214-224 (1994)).
A Dulbecco's phosphate buffer (Dulbecco's PBS(−), Nissui Pharmaceutical Co., Ltd.) solution of human plasma-derived vitronectin (CALBIOCHEM) adjusted to a concentration of 4 μg/ml was first added to wells (50 μl/well) of a microplate (Maxisorp, Nunc), and a reaction for immobilization was allowed to proceed at 4° C. overnight. After washing twice with 150 μl of Dulbecco's phosphate buffer, a Dulbecco's phosphate buffer containing 10 mg/ml of bovine serum albumin (SIGMA) was added, followed by blocking at 37° C. for one hr. The assay plate was washed twice with 150 μl of Dulbecco's phosphate buffer.
Separately, human vascular smooth muscle cells cultivated at 37° C. under 5% carbon dioxide in a medium for vascular smooth muscle cells (Clonetics) were separated using a Dulbecco's phosphate buffer containing trypsin-EDTA (GIBCO BRL), washed with Dulbecco's phosphate buffer, and then suspended in a Dulbecco's modified Eagle's basal medium (Nissui Pharmaceutical Co., Ltd.) containing 0.1% bovine serum albumin to a concentration of 5×10^5/ml.
Next, 50 μl of a Dulbecco's modified Eagle's basal medium containing 10 mg/ml of bovine serum albumin with a medicament added thereto was added to the wells of the human vitronectin-coated assay microplate, followed by pre-cultivation under 5% carbon dioxide at 37° C. for 10 min. Thereafter, 50 μl of the medium with human vascular smooth muscle cells suspended therein was added thereto, and the plate was thoroughly stirred. A reaction was allowed to proceed under 5% carbon dioxide at 37° C. for 90 min. The reaction solution containing non-adherent cells were then removed, followed by washing three times with Dulbecco's phosphate buffer. For the adhered cells, 100 μl of a Dulbecco's phosphate buffer containing 4% paraformaldehyde (Wako Pure Chemical Industries, Ltd.) was added, and immobilization was allowed to proceed at room temperature for 10 min. Next, 100 μl of a Dulbecco's phosphate buffer containing 0.5% Toluidine Blue (Croma) and 4% paraformaldehyde was added, and staining was allowed to proceed at room temperature for 5 min, followed by thorough washing with distilled water. The inside of the wells was then air-dried, and a 1% aqueous sodium dodecylsulfate solution was then added to perform cytolysis. The absorbance of the microplate thus obtained was measured at 595 nm. […] The inhibition was calculated by the following equation. IC50 was determined from a primary regression line of the logarithm of each concentration of the test compound and the logarithm of (100−inhibition)/inhibition. [formula]

[3] = target: T1, integrin αvβ3 (vitronectin receptor purified from the human placenta) (Homo sapiens, UniProt P05106+P06756); assay: αvβ3 binding assay (vitronectin-vitronectin receptor binding assay); settings: vitronectin binding to human placenta vitronectin receptor; read-out: integrin αvβ3 antagonistic activity, IC50 value
T1 construct: a vitronectin receptor (protein content: 118 μg/ml) purified from the human placenta; from tissue; host or cells: human placenta
T1 sequence (P06756 31-889 limits assumed): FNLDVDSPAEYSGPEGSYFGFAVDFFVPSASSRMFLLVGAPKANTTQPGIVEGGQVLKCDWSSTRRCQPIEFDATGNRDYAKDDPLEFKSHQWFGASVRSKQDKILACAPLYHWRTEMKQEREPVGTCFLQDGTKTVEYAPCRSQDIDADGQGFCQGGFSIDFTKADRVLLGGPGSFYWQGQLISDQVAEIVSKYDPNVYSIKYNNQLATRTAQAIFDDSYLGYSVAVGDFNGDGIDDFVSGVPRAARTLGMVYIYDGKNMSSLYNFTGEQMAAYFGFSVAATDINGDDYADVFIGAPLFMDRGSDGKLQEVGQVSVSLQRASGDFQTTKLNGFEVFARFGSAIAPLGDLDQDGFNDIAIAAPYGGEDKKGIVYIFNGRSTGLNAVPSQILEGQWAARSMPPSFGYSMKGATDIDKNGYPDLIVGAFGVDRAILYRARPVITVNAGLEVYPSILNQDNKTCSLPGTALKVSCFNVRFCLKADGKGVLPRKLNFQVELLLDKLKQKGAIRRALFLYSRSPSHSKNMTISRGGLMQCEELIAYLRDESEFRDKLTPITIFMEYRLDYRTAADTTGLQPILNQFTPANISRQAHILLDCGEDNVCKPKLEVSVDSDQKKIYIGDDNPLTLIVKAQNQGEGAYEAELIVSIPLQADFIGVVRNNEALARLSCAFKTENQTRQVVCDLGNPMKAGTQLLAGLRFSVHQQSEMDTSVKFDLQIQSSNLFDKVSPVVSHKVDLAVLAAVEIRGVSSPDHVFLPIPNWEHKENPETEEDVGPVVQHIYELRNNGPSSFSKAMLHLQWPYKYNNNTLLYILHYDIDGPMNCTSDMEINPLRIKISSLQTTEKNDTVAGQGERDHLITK
T1 sequence (P06756 891-1048 limits assumed): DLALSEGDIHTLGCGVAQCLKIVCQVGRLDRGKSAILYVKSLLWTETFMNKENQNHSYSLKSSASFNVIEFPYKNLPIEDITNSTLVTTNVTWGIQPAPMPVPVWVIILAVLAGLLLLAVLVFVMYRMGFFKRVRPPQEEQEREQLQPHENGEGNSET
T1 sequence (P05106 27-788): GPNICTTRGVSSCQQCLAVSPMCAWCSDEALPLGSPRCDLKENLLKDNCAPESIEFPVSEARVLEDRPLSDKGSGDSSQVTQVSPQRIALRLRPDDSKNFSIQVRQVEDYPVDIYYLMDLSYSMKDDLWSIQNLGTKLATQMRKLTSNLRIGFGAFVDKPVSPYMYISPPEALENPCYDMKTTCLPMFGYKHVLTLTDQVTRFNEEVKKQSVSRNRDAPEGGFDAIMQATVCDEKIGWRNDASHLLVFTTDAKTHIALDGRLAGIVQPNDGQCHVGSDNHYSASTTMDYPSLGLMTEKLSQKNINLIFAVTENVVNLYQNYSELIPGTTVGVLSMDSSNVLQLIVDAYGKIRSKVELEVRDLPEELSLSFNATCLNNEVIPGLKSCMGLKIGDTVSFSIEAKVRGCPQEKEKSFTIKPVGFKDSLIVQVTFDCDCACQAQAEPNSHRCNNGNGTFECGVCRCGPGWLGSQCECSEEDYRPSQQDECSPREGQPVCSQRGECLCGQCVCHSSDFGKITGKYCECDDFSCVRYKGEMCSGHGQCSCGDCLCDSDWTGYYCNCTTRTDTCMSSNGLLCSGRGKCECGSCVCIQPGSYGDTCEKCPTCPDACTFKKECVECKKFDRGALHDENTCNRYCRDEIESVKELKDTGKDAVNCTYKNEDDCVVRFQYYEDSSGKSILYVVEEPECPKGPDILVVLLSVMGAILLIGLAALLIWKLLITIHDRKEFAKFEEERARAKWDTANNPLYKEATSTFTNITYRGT

[4] = Acute toxicity test in mice; format: in vivo; settings: intravenously administered to three mice at a dose of 50 mg/kg
Method: The compound of Example 52 was intravenously administered to three mice at a dose of 50 mg/kg.

GP IIb/IIIa, sequence (P08514 32-887 limits assumed): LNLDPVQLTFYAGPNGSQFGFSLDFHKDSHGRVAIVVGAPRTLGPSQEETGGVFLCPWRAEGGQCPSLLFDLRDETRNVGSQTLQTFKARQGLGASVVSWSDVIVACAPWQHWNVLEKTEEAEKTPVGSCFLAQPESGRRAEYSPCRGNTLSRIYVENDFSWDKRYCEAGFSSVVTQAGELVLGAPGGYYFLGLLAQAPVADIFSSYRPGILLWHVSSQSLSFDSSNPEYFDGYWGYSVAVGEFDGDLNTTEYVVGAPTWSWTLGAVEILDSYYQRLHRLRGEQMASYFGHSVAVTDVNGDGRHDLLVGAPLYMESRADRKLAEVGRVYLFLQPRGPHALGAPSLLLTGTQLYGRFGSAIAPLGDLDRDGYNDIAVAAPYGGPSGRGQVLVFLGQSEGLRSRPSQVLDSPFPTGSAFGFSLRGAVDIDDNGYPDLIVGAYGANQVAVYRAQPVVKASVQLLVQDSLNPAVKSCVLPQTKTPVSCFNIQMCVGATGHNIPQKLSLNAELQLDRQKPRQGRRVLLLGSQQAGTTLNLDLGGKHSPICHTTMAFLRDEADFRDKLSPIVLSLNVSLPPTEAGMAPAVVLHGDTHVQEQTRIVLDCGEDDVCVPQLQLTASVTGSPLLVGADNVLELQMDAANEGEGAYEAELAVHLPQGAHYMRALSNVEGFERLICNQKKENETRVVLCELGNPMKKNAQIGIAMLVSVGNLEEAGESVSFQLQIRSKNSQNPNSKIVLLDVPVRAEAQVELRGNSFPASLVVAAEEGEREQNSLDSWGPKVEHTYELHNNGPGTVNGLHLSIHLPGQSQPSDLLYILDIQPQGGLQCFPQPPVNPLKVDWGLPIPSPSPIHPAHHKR
GP IIb/IIIa, sequence (P08514 891-1039 limits assumed): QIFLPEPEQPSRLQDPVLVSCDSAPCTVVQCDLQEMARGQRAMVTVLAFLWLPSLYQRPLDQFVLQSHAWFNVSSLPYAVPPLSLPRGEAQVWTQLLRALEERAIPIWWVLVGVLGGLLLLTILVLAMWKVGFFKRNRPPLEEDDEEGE
GP IIb/IIIa, sequence (P05106 27-788): as the sequence (P05106 27-788) above

For O=C(NC[C@H](NS(=O)(=O)c1ccccc1)C(=O)O)c1ccc(N2CCC(NC3=NCCCN3)CC2)c(F)c1 [Example 52, (2S)-Benzenesulfonylamino-3-[3-fluoro-4-{4-(1,4,5,6-tetrahydropyrimidin-2-ylamino)piperidin-1-yl}-benzoylamino]propionic acid], which IC50 [1] is on record?
The IC50 was at most 1 nM.

And the IC50 [2]?
The IC50 was at most 70 nM.

And the IC50 [3]?
Its IC50 is at most 1 nM.

And the “survival in acute toxicity test” value [4]?
Its value is “all the mice survived”.

What about the “change in weight in acute toxicity test” value ([4]; compared with solvent group) of the same compound?
The value was “the same as a group of mice to which only a solvent had been administrered”.
